From US11491157B2, “Cycloalkyl substituted pyrazolopyrimidines having activity against RSV” (priority 2018, dated 2022)
Where a name gives a salt, the structure may show the parent alone.

Tests used:
rgRSV224 virus = assay: Antiviral activity: rgRSV224 (GFP) replication in HeLa cells; details: human respiratory syncytial virus, 72 h, read-out: RSV HELA EC50
Description: (§1) Black 384-well clear-bottom microtiter plates (Corning, Amsterdam, The Netherlands) were filled via acoustic drop ejection using the echo liquid handler (Labcyte, Sunnyvale, Calif.). 200 nL of compound stock solutions (100% DMSO) were transferred to the assay plates. 9 serial 4-fold dilutions of compound were made, creating per quadrant the same compound concentration. The assay was initiated by adding 10 μL of culture medium to each well (RPMI medium without phenol red, 10% FBS-heat inactivated, 0.04% gentamycin (50 mg/mL). All addition steps are done by using a multidrop dispenser (Thermo Scientific, Erembodegem, Belgium). Next, rgRSV224 virus (MOI=1) diluted in culture medium was added to the plates. rgRSV224 virus is an engineered virus that includes an additional GFP gene (Hallak L K, Spillmann D, Collins P L, Peeples M E. Glycosaminoglycan sulfation requirements for respiratory syncytial virus infection; Journal of virology (2000), 74(22), 10508-13) and was in-licensed from the NIH (Bethesda, Md., USA). Finally, 20 μL of a HeLa cell suspension (3,000 cells/well) were plated. Medium, virus- and mock-infected controls were included in each test. The wells contain 0.05% DMSO per volume. Cells were incubated at 37° C. in a 5% CO2 atmosphere. Three days post-virus exposure, viral replication was quantified by measuring GFP expression in the cells by an in house developed MSM laser microscope (Tibotec, Beerse, Belgium). The EC50 was defined as the 50% inhibitory concentration for GFP expression. In parallel, compounds were incubated for three days in a set of white 384-well microtiter plates (Corning) and the cytotoxicity of compounds in HeLa cells was determined by measuring the ATP content of the cells using the ATPlite kit (Perkin Elmer, Zaventem, Belgium) according to the manufacturer's instructions. The CC50 was defined as the 50% concentration for cytotoxicity.

in vitro = details: human
Description: as §1

Row | Structure (SMILES) | melting point | EC50 (rgRSV224 virus) | CC50 at 3 days (in vitro)
1 | C[C@@H]1c2cc(F)sc2CCN1C(=O)c1cc(C2CC2)n2nc(-c3ccc([C@H]4C[C@@H]4C(N)=O)cc3F)cc2n1 (relative stereo) [Compound 11, (1S,2S)-2-(4-{7-Cyclopropyl-5-[(4*R)-2-fluoro-4-methyl-4,5,6,7-tetrahydro-thieno[3,2-c]pyridine-5-carbonyl]pyrazolo[1,5-a]pyrimidin-2-yl}-3-fluorophenyl)cyclopropane-1-carboxamide] | 300.14 °C | 44 nM | 
2 | C[C@@H]1c2ccccc2CCN1C(=O)c1cc(-c2ccccc2)n2nc(-c3ccc([C@@H]4C[C@H]4C(=O)NS(C)(=O)=O)cc3F)cc2n1 (single isomer, unassigned) (as salt: salt) [Compound 32, (1*R,2*R)-2-(3-Fluoro-4-{5-[(1R)-1-methyl-1,2,3,4-tetrahydroisoquinoline-2-carbonyl]-7-phenylpyrazolo[1,5-a]pyrimidin-2-yl}phenyl)-N-methanesulfonyl-cyclopropane-1-carboxamide; propan-2-amine salt] | 186.79 °C |  | 
3 | C[C@@H]1c2ccsc2CCN1C(=O)c1cc(C2CC2)n2nc(-c3ccc([C@H]4C[C@@H]4C(N)=O)cc3F)cc2n1 (single isomer, unassigned) [Compound 10, (1S,2S)-2-(4-{7-Cyclopropyl-5-[(4*R)-4-methyl-4,5,6,7-tetrahydro-thieno[3,2-c]pyridine-5-carbonyl]pyrazolo[1,5-a]pyrimidin-2-yl}-3-fluorophenyl)cyclopropane-1-carboxamide] | 302.9 °C | 14 nM | > 25000 nM
4 | C[C@@H]1c2ccsc2CCN1C(=O)c1cc(C2CC2)n2nc(-c3ccc([C@H]4C[C@@H]4C(=O)NS(C)(=O)=O)cc3F)cc2n1 (single isomer, unassigned) [Compound 28, (1S,2S)-2-(4-{7-Cyclopropyl-5-[(4*R)-4-methyl-4,5,6,7-tetrahydro-thieno[3,2-c]pyridine-5-carbonyl]pyrazolo[1,5-a]pyrimidin-2-yl}-3-fluorophenyl)-N-methanesulfonyl-cyclopropane-1-carboxamide] | 286.12 °C | 37 nM | 53400 nM
5 | C[C@@H]1c2ccccc2CCN1C(=O)c1cc(C2CC2)n2nc(-c3ccc([C@H]4C[C@@H]4c4nnn[nH]4)cc3F)cc2n1 [Compound 4, (1R)-2-(7-Cyclopropyl-2-{2-fluoro-4-[(1S,2S)-2-(1H-1,2,3,4-tetrazol-5-yl)cyclopropyl]phenyl}pyrazolo[1,5-a]pyrimidine-5-carbonyl)-1-methyl-1,2,3,4-tetrahydroisoquinoline] | 254.07 °C | 120 nM | 44000 nM
6 | C[C@@H]1c2ccccc2CCN1C(=O)c1cc(C2CC2)n2nc(-c3ccc([C@H]4C[C@@H]4C(N)=O)cc3F)cc2n1 [Compound 7, (1S,2S)-2-(4-{7-Cyclopropyl-5-[(1R)-1-methyl-1,2,3,4-tetrahydroisoquinoline-2-carbonyl]pyrazolo[1,5-a]pyrimidin-2-yl}-3-fluorophenyl)cyclopropane-1-carboxamide] | 280.69 °C | 30 nM | > 100000 nM
7 | CNC(=O)[C@H]1C[C@@H]1c1ccc(-c2cc3nc(C(=O)N4CCc5ccccc5[C@H]4C)cc(C4CC4)n3n2)c(F)c1 [Compound 12, (1S,2S)-2-(4-{7-Cyclopropyl-5-[(1R)-1-methyl-1,2,3,4-tetrahydroisoquinoline-2-carbonyl]pyrazolo[1,5-a]pyrimidin-2-yl}-3-fluorophenyl)-N-methylcyclopropane-1-carboxamide] | 258.18 °C | 24 nM | > 100000 nM
8 | CCCNC(=O)[C@H]1C[C@@H]1c1ccc(-c2cc3nc(C(=O)N4CCc5ccccc5[C@H]4C)cc(C4CC4)n3n2)c(F)c1 [Compound 15, (1S,2S)-2-(4-{7-Cyclopropyl-5-[(1R)-1-methyl-1,2,3,4-tetrahydroisoquinoline-2-carbonyl]pyrazolo[1,5-a]pyrimidin-2-yl}-3-fluorophenyl)-N-propylcyclopropane-1-carboxamide] | 238.1 °C | 408 nM | > 100000 nM
9 | C=CCNC(=O)[C@H]1C[C@@H]1c1ccc(-c2cc3nc(C(=O)N4CCc5ccccc5[C@H]4C)cc(C4CC4)n3n2)c(F)c1 [Compound 16, (1S,2S)-2-(4-{7-Cyclopropyl-5-[(1R)-1-methyl-1,2,3,4-tetrahydroisoquinoline-2-carbonyl]pyrazolo[1,5-a]pyrimidin-2-yl}-3-fluorophenyl)-N-(prop-2-en-1-yl)cyclopropane-1-carboxamide] | 240.35 °C | 263 nM | > 100000 nM
10 | C[C@@H]1c2ccccc2CCN1C(=O)c1cc(C2CC2)n2nc(-c3ccc([C@H]4C[C@@H]4C(=O)NCCC#N)cc3F)cc2n1 [Compound 18, (1S,2S)—N-(2-Cyanoethyl)-2-(4-{7-cyclopropyl-5-[(1R)-1-methyl-1,2,3,4-tetrahydro-isoquinoline-2-carbonyl]pyrazolo[1,5-a]pyrimidin-2-yl}-3-fluorophenyl)cyclopropane-1-carboxamide] | 212.72 °C | 76 nM | > 100000 nM
11 | C[C@@H]1c2ccccc2CCN1C(=O)c1cc(C2CC2)n2nc(-c3ccc([C@H]4C[C@@H]4C(=O)NC4COC4)cc3F)cc2n1 [Compound 19, (1S,2S)-2-(4-{7-Cyclopropyl-5-[(1R)-1-methyl-1,2,3,4-tetrahydroisoquinoline-2-carbonyl]-pyrazolo[1,5-a]pyrimidin-2-yl}-3-fluorophenyl)-N-(oxetan-3-yl)cyclopropane-1-carboxamide] | 248.97 °C | 95 nM | > 100000 nM
12 | C[C@@H]1c2ccccc2CCN1C(=O)c1cc(C2CC2)n2nc(-c3ccc([C@H]4C[C@@H]4C(=O)NS(C)(=O)=O)cc3F)cc2n1 [Compound 24, (1S,2S)-2-(4-{7-Cyclopropyl-5-[(1R)-1-methyl-1,2,3,4-tetrahydroisoquinoline-2-carbonyl]pyrazolo[1,5-a]pyrimidin-2-yl}-3-fluorophenyl)-N-methanesulfonyl-cyclopropane-1-carboxamide] | 166.75 °C | 20 nM | 44900 nM
13 | CCS(=O)(=O)NC(=O)[C@H]1C[C@@H]1c1ccc(-c2cc3nc(C(=O)N4CCc5ccccc5[C@H]4C)cc(C4CC4)n3n2)c(F)c1 [Compound 25, (1S,2S)-2-(4-{7-Cyclopropyl-5-[(1R)-1-methyl-1,2,3,4-tetrahydroisoquinoline-2-carbonyl]pyrazolo[1,5-a]pyrimidin-2-yl}-3-fluorophenyl)-N-(ethanesulfonyl)-cyclopropane-1-carboxamide] | 171.93 °C | 34 nM | 51900 nM
14 | CC(C)CS(=O)(=O)NC(=O)[C@H]1C[C@@H]1c1ccc(-c2cc3nc(C(=O)N4CCc5ccccc5[C@H]4C)cc(C4CC4)n3n2)c(F)c1 [Compound 26, (1S,2S)-2-(4-{7-Cyclopropyl-5-[(1R)-1-methyl-1,2,3,4-tetrahydroisoquinoline-2-carbonyl]pyrazolo[1,5-a]pyrimidin-2-yl}-3-fluorophenyl)-N-(2-methylpropanesulfonyl)-cyclopropane-1-carboxamide] | 160.53 °C | 138 nM | 52100 nM
15 | C[C@@H]1c2ccccc2CCN1C(=O)c1cc(C2CC2)n2nc(-c3ccc([C@H]4C[C@@H]4O)cc3F)cc2n1 [Compound 38, (1S,2R)-2-(4-{7-Cyclopropyl-5-[(1R)-1-methyl-1,2,3,4-tetrahydroisoquinoline-2-carbonyl]pyrazolo[1,5-a]pyrimidin-2-yl}-3-fluorophenyl)cyclopropan-1-ol] |  | 159 nM | 50400 nM
16 | C[C@@H]1c2ccccc2CCN1C(=O)c1cc(C2CC2)n2nc(-c3ccc([C@H]4C[C@H](CO)C4)cc3F)cc2n1 [Compound 41, [trans-3-(4-{7-Cyclopropyl-5-[(1R)-1-methyl-1,2,3,4-tetrahydroisoquinoline-2-carbonyl]pyrazolo[1,5-a]pyrimidin-2-yl}-3-fluorophenyl)cyclobutyl]methanol] |  | 152 nM | 49800 nM
17 | C[C@@H]1c2ccccc2CCN1C(=O)c1cc(C2CC2)n2nc(-c3ccc([C@H]4C[C@H](COC(N)=O)C4)cc3F)cc2n1 [Compound 43, [trans-3-(4-{7-Cyclopropyl-5-[(1R)-1-methyl-1,2,3,4-tetrahydroisoquinoline-2-carbonyl]pyrazolo[1,5-a]pyrimidin-2-yl}-3-fluorophenyl)cyclobutyl]methyl carbamate] |  | 307 nM | > 100000 nM
18 | C[C@@H]1c2ccccc2CCN1C(=O)c1cc(C2CC2)n2nc(-c3ccc([C@H]4C[C@H](CC(N)=O)C4)cc3F)cc2n1 [Compound 45, 2-[trans-3-(4-{7-Cyclopropyl-5-[(1R)-1-methyl-1,2,3,4-tetrahydroisoquinoline-2-carbonyl]pyrazolo[1,5-a]pyrimidin-2-yl}-3-fluorophenyl)cyclobutyl]acetamide] |  | 146 nM | 29500 nM
19 | C[C@@H]1c2ccccc2CCN1C(=O)c1cc(C2CC2)n2nc(-c3ccc([C@H]4C[C@@H](CC(N)=O)C4)cc3F)cc2n1 [Compound 46, 2-[cis-3-(4-{7-Cyclopropyl-5-[(1R)-1-methyl-1,2,3,4-tetrahydroisoquinoline-2-carbonyl]pyrazolo[1,5-a]pyrimidin-2-yl}-3-fluorophenyl)cyclobutyl]acetamide] |  | 145 nM | 30400 nM
20 | CNC(=O)C[C@H]1C[C@H](c2ccc(-c3cc4nc(C(=O)N5CCc6ccccc6[C@H]5C)cc(C5CC5)n4n3)c(F)c2)C1 [Compound 47, N-methyl-2-[trans-3-(4-{7-cyclopropyl-5-[(1R)-1-methyl-1,2,3,4-tetrahydroisoquinoline-2-carbonyl]pyrazolo[1,5-a]pyrimidin-2-yl}-3-fluorophenyl)cyclobutyl]acetamide] |  | 148 nM | 25800 nM
